US11739337B2, “Gadusol derivative production in bacteria” (Oregon State University, priority 2019, dated 2023)
Where two headings read alike, the source gives them in different places. One block for each compound: values may come before it.

What was measured:
[1] = cited from earlier work
[2] = background statement; cited from earlier work
Solubility in methanol = type: physicochemical
[3] = comparison value for shinorine; cited from earlier work
[4] = UV absorbance maximum (λmax); type: physicochemical; conditions: for UV maximum: under acidic conditions, HPLC of culture broth
Description: Gadusporine A (see FIG. 5A), a yellow-brown solid, UV (50 mM phosphate buffer pH 7) λmax 340 nm, (50 mM acetic acid pH 3) λmax 338 nm. ^1H NMR (700 MHz, D2O) and ^13C NMR (175 MHz, D2O) see Table 3. HR-ESIMS m/z 349.1239 [M+H]^+ (calculated for C13H20N2O9, 349.1247).
Gadusporine A was produced at 20 mg/L. Gadusol was produced by pTMAO-G1 at of 29 mg/L.
Shinorine has been reported to have λmax=330 nm at pH 1.7 and λmax=334 nm at pH 7. […] Gadusporine A has a molar extinction coefficient ε=49,400, as measured in 50 mM phosphate buffer at pH 7.0, which is slightly higher than shinorine (ε=44,000), thus stronger UV absorbance activity.

[5] = Molar extinction coefficient by UV absorbance at 340 nm; type: physicochemical; conditions: 50 mM phosphate buffer at pH 7.0, absorbance at 340 nm; in M-1 cm-1 (unit assumed)
Description: S. coelicolor A(3)2 pTMAO-G3 was cultured as described above at larger scales and 225 mL of S. coelicolor pTMAO-G3 culture broth was dried to ˜20 mL and passed through a C18 solid phase extraction (SPE) column. Gadusol and gadusporines were mostly un-retained, however, washing with water for 1-2 column volumes (CVs) eluted the remaining compounds. The eluent was combined and dried to ˜20 mL, which was applied directly to a 300 mL Bio-Rad AG®-1×8 (acetate form) column. After washing with 2 L of water, 500 mM acetic acid was used to elute gadusol and gadusporines. All fractions containing both gadusol and gadusporines were combined and fractions lacking gadusol but containing gadusporines were combined separately and dried. The gadusol-free fraction was further purified using the preparative HPLC as described previously to give gadusporine A (9.0 mg) (see FIG. 5A) as two different isomers. All NMR experiments were performed on a 700 MHz Bruker NMR Spectrometer with a cryo probe at the Oregon State University (OSU) NMR facility. The molar extinction coefficient of gadusporine A was determined by dissolving 0.6 mg in 50 mM phosphate buffer at pH 7.0 in a 25 mL volumetric flask then measuring UV absorbance at 340 nm.

Compound: COC1=C(O)CC(O)(CO)C(O)C1=O (centres unmarked) [Gadusol, gadusol]
UV absorbance maxima ([1]; pH 2.5): 268 nm | UV absorbance maxima ([1]; pH 7.0): 296 nm | antioxidant activity [2]: antioxidant activity

solubility in methanol (Solubility in methanol): readily dissolved in methanol
Compound: COC1=C(NCC(=O)O)C[C@@](O)(CO)C/C1=N\[C@@H](CO)C(=O)O [Shinorine, shinorine]
λmax ([1]; pH 1.7, reported): 330 nm | λmax ([1]; pH 7, reported): 334 nm | molar extinction coefficient ε [3]: 44,000

UV λmax ([4]; 50 mM acetic acid pH 3): 338 nm | UV λmax ([4]; 50 mM phosphate buffer pH 7): 340 nm | λmax ([4]; pH 2.0): 338 nm | λmax ([4]; pH 7.0): 340 nm | UV maximum [4]: 338 nm | molar extinction coefficient ε [5]: 49,400
Compound: COC1=C(NCC(=O)O)C[C@@](O)(CO)[C@@H](O)/C1=N\[C@@H](CO)C(=O)O [gadusporine A, (S)-2-(((5R,6S,E)-3-((carboxymethyl)amino)-5,6-dihydroxy-5-(hydroxymethyl)-2-methoxycyclohex-2-en-1-ylidene)amino)-3-hydroxypropanoic acid]

UV λmax ([4]; 50 mM acetic acid pH 3): 338 nm | UV λmax ([4]; 50 mM phosphate buffer pH 7): 340 nm | UV maximum [4]: 338 nm | solubility in methanol (Solubility in methanol): not very soluble in methanol
Compound: COC1=C(NCC(=O)O)C[C@@](O)(CO)[C@@H](O)/C1=N\[C@@H](C)C(=O)O [gadusporine B, (S)-2-(((5R,6S,E)-3-((carboxymethyl)amino)-5,6-dihydroxy-5-(hydroxymethyl)-2-methoxycyclohex-2-en-1-ylidene)amino)propanoic acid]

Compound: C/C=C/NC1=C(OC)C(=NCC(=O)O)CC(O)(CO)C1 (centres unmarked) [palythene]
λmax ([1]; background, no pH given): 360 nm

Compound: C/C=C\NC1=C(OC)C(=NCC(=O)O)CC(O)(CO)C1 (centres unmarked) [usujirene]
λmax ([1]; background, no pH given): 357 nm

Compound: prasiolin
λmax ([1]; background, no pH given): 324 nm
